Measurements as given in patent US10072026B2, “Crystalline form of 3-((1R,3s,5S)-3-((7-((5-methyl-1H-pyrazol-3-yl)amino)-1,6-naphthyridin-5-yl)amino)-8-azabicyclo[3.2.1]octan-8-yl)propanenitrile” (priority 2015, dated 2018).
Where two headings read alike, the source gives them in different places.

Experiments:
[1] = system: IL-4 induced STAT6 phosphorylation in THP-1 human monocytic cells; test: Cellular JAK potency assay, THP-1; details: for THP-1 IL4 pIC50: IL-4 induced STAT6 phosphorylation, THP-1 cells; for IC50: Homo sapiens, THP-1, read-out: THP-1 IL4 pIC50 (converted)
[2] = system: oxazolone-induced colitis; test: Mouse model of oxazolone-induced colitis; type: in vivo, BALB/C mice; details: mouse, PO, 1, 3, and/or 10 mg/kg BID
Protocol: Assay 7: Mouse Model of Oxazalone-Induced Colitis
Oxazolone-induced colitis is an experimental model that has a histological resemblance to human ulcerative colitis (Heller et al. Immunology, 2002, 17, 629-638). Adult BALB/C mice from Harlan were used in the assay. On day 1, animals were lightly anesthetized with isoflurane and the hairs between the shoulder were carefully removed before oxazolone (4%, 150 μL, 4:1 acetone:olive oil formulation) or vehicle solution was slowly applied for skin sensitization. Seven days after skin sensitization, the mice were fasted overnight, anesthetized with isoflurane inhalation, and a 1 mL syringe equipped with a 3.5-F catheter, filled with oxazolone solution, was inserted carefully about 4 cm into the colon of the mouse. Following insertion, 50 μL of the oxazolone solution (1%, 1:1 ethanol:water formulation) was injected very slowly (over 30 sec using an injection pump) into the colon. The catheter was removed and the mice were held vertically (head down) for 2 min to ensure that the entire oxazolone solution remained inside the colon. Drug treatment (PO, BID or TID) or vehicle was initiated a day prior to the oxazolone intrarectal (IR) challenge. Two-day post oxazolone intrarectal challenge, the Disease Activity Index (DAI) was assessed by treatment-blinded experimenters for each mouse according to the criteria score: stool consistency score (0, normal; 2, loose; 4, diarrhea), gross bleeding score (0, absence; 2, blood tinged; 4, presence), and weight loss score (0, none; 1, 1%-5%; 2, 5%-10%; 3, 10%-20%; 4, more than 20%); DAI=average of (stool consistency score+gross bleeding score+weight loss score).
Selected compounds of the invention were tested in the assay. Efficacy in the model is evidenced by a decrease in DAI score as compared with the score from vehicle treated animals.

[3] = molecular target: JAK3 (Homo sapiens (Human), UniProt P52333); test: LanthaScreen JAK biochemical assay (JAK3)
[4] = molecular target: JAK2 (Homo sapiens (Human), UniProt O60674); test: LanthaScreen JAK biochemical assay (JAK2); details: for Ki: read-out: JAK 2 (pKi) (converted)
Sequence of JAK2 (O60674 whole entry): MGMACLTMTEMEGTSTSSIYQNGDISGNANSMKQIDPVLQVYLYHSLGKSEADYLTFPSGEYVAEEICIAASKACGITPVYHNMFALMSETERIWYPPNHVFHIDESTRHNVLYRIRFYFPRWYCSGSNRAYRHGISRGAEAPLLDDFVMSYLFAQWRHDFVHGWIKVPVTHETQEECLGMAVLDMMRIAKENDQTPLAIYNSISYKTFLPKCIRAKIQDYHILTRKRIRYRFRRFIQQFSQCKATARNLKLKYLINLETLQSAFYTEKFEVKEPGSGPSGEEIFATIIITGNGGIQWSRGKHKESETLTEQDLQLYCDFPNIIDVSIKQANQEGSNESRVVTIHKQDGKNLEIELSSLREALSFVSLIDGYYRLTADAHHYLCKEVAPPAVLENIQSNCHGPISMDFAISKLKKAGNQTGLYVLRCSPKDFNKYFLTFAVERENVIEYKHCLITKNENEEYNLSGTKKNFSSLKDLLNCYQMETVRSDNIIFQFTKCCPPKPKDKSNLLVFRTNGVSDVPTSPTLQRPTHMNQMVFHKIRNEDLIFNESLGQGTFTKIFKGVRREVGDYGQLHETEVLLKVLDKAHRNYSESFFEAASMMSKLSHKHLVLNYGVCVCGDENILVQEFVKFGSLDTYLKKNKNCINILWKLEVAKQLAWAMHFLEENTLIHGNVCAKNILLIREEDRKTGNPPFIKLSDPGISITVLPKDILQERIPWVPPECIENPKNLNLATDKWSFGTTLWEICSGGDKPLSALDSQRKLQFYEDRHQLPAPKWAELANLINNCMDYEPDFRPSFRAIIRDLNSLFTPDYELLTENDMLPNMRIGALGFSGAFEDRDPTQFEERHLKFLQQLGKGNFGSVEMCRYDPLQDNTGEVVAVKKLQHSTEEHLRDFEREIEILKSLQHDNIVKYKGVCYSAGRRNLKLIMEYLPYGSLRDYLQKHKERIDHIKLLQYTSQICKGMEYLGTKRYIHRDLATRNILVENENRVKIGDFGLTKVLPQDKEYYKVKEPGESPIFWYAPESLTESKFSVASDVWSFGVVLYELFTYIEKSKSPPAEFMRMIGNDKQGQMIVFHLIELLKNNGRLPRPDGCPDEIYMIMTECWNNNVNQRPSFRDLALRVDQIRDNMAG

[5] = molecular target: JAK1 (Homo sapiens (Human), UniProt P23458); test: LanthaScreen JAK biochemical assay (JAK1)
Sequence of JAK1 (P23458 whole entry): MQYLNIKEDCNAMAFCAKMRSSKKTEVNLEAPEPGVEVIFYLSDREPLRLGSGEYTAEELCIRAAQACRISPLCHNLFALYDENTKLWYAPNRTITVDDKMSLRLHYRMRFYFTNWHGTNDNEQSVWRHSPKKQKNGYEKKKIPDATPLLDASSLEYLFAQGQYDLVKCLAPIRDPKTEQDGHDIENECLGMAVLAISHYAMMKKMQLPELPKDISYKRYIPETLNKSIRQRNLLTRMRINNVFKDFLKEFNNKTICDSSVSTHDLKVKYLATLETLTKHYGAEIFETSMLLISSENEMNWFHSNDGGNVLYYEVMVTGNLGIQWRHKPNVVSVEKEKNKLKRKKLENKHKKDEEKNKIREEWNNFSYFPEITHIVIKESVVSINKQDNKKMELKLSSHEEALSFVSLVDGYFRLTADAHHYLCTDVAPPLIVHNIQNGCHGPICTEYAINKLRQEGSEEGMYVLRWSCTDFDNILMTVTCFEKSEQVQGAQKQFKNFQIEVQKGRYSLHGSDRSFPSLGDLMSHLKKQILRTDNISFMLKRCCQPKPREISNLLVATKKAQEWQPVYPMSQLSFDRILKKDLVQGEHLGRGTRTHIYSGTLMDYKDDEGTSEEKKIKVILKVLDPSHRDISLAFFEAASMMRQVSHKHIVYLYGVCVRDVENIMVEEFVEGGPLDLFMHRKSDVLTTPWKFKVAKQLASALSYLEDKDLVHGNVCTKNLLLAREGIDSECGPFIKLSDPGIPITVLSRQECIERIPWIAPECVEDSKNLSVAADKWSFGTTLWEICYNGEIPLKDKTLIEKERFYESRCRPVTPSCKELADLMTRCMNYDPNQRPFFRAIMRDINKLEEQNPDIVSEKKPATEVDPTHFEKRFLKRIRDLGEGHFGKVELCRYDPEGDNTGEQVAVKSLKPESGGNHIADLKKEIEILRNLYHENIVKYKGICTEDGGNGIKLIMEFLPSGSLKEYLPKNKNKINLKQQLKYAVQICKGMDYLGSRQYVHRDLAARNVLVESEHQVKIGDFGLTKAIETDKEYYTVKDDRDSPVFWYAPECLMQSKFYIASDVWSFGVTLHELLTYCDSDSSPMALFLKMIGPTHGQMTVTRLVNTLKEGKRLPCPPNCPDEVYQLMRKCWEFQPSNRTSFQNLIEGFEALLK

[6] = molecular target: Tyk2 (Homo sapiens (Human), UniProt P29597); test: LanthaScreen JAK biochemical assay (Tyk2)
Sequence of Tyk2 (P29597 whole entry): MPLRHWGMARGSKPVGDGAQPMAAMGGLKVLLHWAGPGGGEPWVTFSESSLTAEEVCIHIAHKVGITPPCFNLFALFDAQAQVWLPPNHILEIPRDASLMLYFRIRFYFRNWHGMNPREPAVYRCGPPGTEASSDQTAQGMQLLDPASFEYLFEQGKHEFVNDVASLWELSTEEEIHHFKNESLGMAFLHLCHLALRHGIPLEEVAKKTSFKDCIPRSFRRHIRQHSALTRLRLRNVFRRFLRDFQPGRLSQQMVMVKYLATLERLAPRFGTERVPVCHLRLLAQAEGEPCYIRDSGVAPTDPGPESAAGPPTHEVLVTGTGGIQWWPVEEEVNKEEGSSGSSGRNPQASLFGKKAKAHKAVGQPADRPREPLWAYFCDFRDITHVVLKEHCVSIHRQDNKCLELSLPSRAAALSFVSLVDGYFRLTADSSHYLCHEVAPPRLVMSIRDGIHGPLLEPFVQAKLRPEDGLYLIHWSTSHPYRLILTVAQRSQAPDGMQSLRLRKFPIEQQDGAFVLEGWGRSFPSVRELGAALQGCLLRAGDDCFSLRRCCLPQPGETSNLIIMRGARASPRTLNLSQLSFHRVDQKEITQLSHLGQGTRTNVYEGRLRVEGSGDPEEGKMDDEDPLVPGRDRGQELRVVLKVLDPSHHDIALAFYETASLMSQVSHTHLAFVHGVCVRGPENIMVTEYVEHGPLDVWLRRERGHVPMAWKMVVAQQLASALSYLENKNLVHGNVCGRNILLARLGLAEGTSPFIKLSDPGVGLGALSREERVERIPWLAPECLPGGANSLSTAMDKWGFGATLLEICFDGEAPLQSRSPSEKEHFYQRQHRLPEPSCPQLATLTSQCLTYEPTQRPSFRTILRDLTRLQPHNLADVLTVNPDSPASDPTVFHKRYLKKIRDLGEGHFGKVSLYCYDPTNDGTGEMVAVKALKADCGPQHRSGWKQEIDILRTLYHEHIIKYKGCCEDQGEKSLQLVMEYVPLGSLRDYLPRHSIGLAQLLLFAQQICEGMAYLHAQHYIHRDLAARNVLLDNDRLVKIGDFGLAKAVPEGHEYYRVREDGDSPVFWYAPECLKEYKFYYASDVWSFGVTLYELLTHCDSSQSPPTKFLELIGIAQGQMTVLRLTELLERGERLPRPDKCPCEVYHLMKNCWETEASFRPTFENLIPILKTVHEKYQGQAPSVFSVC

[7] = system: IL-13 induced STAT6 phosphorylation in BEAS-2B human lung epithelial cells; test: AlphaScreen cellular JAK potency assay, BEAS-2B; details: for BEAS2B pIC50: IL-13 induced STAT6 phosphorylation, BEAS-2B cells; for IC50: Homo sapiens, BEAS-2B, read-out: BEAS2B pIC50 (converted)
[8] = in vivo; parameters: species or system Sprague Dawley rats; details: Sprague Dawley, rat, po, 5 mg/kg
Protocol: Assay 5: Colon Pharmacokinetics in Rats
Test compounds were individually formulated in 0.5% methyl-cellulose in water and dosed via oral gavage at 5 mg/kg to Sprague Dawley rats. At various time points (typically 1, 2, 4, 6, 24 hr) post dosing, blood samples were removed via cardiac puncture and intact colons were excised from the rats. Blood samples were centrifuged at 1500×g for 15 min to collect plasma. Colons were washed with ice cold phosphate buffered saline (PBS), weighed, and homogenized at a dilution of 1:10 in PBS. Plasma and colon levels of test compound were determined by LC-MS analysis against analytical standards constructed into a standard curve in the test matrix. A colon to plasma ratio was determined as the ratio of the colon AUC to the plasma AUC in μg hr/g.

[9] = Determination of absorption in cannulated rats; type: in vivo; details: Sprague Dawley rats, oral vs IV; for bioavailability: rat, plasma (jugular vein), jugular vein, read-out: oral bioavailability (F %)
Protocol: Drug levels were determined using an LC-MS-MS method. The resulting drug levels were used to compute the IV pharmacokinetic parameters: AUC IV and Dose IV. (2) Rats that have been cannulated in their portal vein (PV) and also in their jugular vein (JV) were dosed orally with test compound. Following oral dosing, plasma samples were typically collected from 0-6 hr from both the portal vein and the jugular vein. Drug levels were determined using an LC-MS-MS method. The resulting drug levels were used to compute the following pharmacokinetic parameters: AUC PO PV, AUC PO JV, and Dose PO. Using data derived from the above studies, the oral bioavailability F %, and the quantities Fa% and Fh% were calculated from the following formulas: F %=(AUC PO JV/AUC IV)*(Dose IV/Dose PO)*100 Fa%=(AUC PO PV/AUC IV)*(Dose IV/Dose PO)*100 Fh%=AUC PO JV/AUC PO PV where: AUC PO JV=Area under the curve following oral dose and plasma collected from the jugular vein AUC PO PV=Area under the curve following oral dose and plasma collected from the portal vein AUC IV=Area under the curve following an intravenous dose Dose IV=Intravenous Dose in mg/kg Dose PO=Oral Dose in mg/kg

| SMILES | THP-1 IL4 pIC50 [1] | decrease in DAI score as compared with vehicle treated animals [2] | JAK 3 (pKi) [3] | JAK 2 (pKi) [4] | JAK 1 (pKi) [5] | Tyk 2 (pKi) [6] | BEAS2B pIC50 [7] | Kp [8] | IC50 [1] [nM] | absorption at the portal vein (Fa%) [9] | bioavailability [9] [%] | IC50 [7] [nM] | Ki ([6]; read-out: Tyk 2 (pKi) (converted)) [nM] | Ki [4] [nM] | Ki ([5]; read-out: JAK 1 (pKi) (converted)) [nM] | Ki [5] [nM] |
| --- | --- | --- | --- | --- | --- | --- | --- | --- | --- | --- | --- | --- | --- | --- | --- | --- |
| Cc1cc(Nc2cc3ncccc3c(N[C@@H]3C[C@H]4CCC[C@@H](C3)N4CC(=O)N(C)C)n2)n[nH]1 [Example 1-38] | B (B represents a pEC50 value between 6.7 and 7.5 (EC50 between 200 nM and 32 nM)) | statistically significant decrease | C (C represents a pKi value between 7 and 9 (Ki between 100 nM and 1 nM)) | B (B represents a pKi value between 9 and 10 (Ki between 1 nM and 0.1 nM)) | B (B represents a pKi value between 9 and 10 (Ki between 1 nM and 0.1 nM)) | – | – | – | – | – | – | – | – | – | – | – |
| CCC(C)C(=O)N1C2CCC1CC(Nc1nc(Nc3cc(C)[nH]n3)cc3ncccc13)C2 (stereo not shown) [Example 2-6] | B (B represents a pEC50 value between 6.7 and 7.5 (EC50 between 200 nM and 32 nM)) | did not exhibit a statistically significant decrease | C (C represents a pKi value between 7 and 9 (Ki between 100 nM and 1 nM)) | B (B represents a pKi value between 9 and 10 (Ki between 1 nM and 0.1 nM)) | B (B represents a pKi value between 9 and 10 (Ki between 1 nM and 0.1 nM)) | C (C represents a pKi value between 7 and 9 (Ki between 100 nM and 1 nM)) | A (A represents a pEC50 value≥7.5 (EC50≤32 nM)) | – | – | – | – | – | – | – | – | – |
| Cc1cc(Nc2cc3ncccc3c(N[C@@H]3C[C@H]4CC[C@@H](C3)N4C(=O)C(F)F)n2)n[nH]1 [Example 5, 2,2-difluoro-1-((1R,3s,5S)-3-((7-((5-methyl-1H-pyrazol-3-yl)amino)-1,6-naphthyridin-5-yl)amino)-8-azabicyclo[3.2.1]octan-8-yl)ethan-1-one] | – | statistically significant decrease | – | – | – | – | – | > 450 | – | – | – | – | – | – | – | – |
| Cc1cc(Nc2cc3ncccc3c(NC3CC4CCCC(C3)N4C(=O)C(C)O)n2)n[nH]1 (stereo not shown) [Example 2-16] | B (B represents a pEC50 value between 6.7 and 7.5 (EC50 between 200 nM and 32 nM)) | did not exhibit a statistically significant decrease | C (C represents a pKi value between 7 and 9 (Ki between 100 nM and 1 nM)) | B (B represents a pKi value between 9 and 10 (Ki between 1 nM and 0.1 nM)) | B (B represents a pKi value between 9 and 10 (Ki between 1 nM and 0.1 nM)) | B (B represents a pKi value between 9 and 10 (Ki between 1 nM and 0.1 nM)) | B (B represents a pEC50 value between 6.7 and 7.5 (EC50 between 200 nM and 32 nM)) | – | – | – | – | – | – | – | – | – |
| Cc1cc(Nc2cc3ncccc3c(N[C@@H]3C[C@H]4CCC[C@@H](C3)N4S(=O)(=O)c3cccnc3)n2)n[nH]1 [Example 8, N^7-(5-methyl-1H-pyrazol-3-yl)-N^5-((1R,3s,5S)-9-(pyridin-3-ylsulfonyl)-9-azabicyclo[3.3.1]nonan-3-yl)-1,6-naphthyridine-5,7-diamine] | – | statistically significant decrease | – | – | – | – | – | – | < 31.6 | less than 10% | < 5 | < 31.6 | – | – | – | – |
| CCOCC(=O)N1[C@@H]2CCC[C@H]1C[C@H](Nc1nc(Nc3cc(C)[nH]n3)cc3ncccc13)C2 [Example 2-17] | B (B represents a pEC50 value between 6.7 and 7.5 (EC50 between 200 nM and 32 nM)) | did not exhibit a statistically significant decrease | C (C represents a pKi value between 7 and 9 (Ki between 100 nM and 1 nM)) | B (B represents a pKi value between 9 and 10 (Ki between 1 nM and 0.1 nM)) | B (B represents a pKi value between 9 and 10 (Ki between 1 nM and 0.1 nM)) | – | A (A represents a pEC50 value≥7.5 (EC50≤32 nM)) | – | – | – | – | – | – | – | – | – |
| Cc1cc(Nc2cc3ncccc3c(N[C@@H]3C[C@H]4CC[C@@H](C3)N4S(=O)(=O)CC(C)C)n2)n[nH]1 [Example 4-3] | A (A represents a pEC50 value≥7.5 (EC50≤32 nM)) | did not exhibit a statistically significant decrease | C (C represents a pKi value between 7 and 9 (Ki between 100 nM and 1 nM)) | B (B represents a pKi value between 9 and 10 (Ki between 1 nM and 0.1 nM)) | B (B represents a pKi value between 9 and 10 (Ki between 1 nM and 0.1 nM)) | B (B represents a pKi value between 9 and 10 (Ki between 1 nM and 0.1 nM)) | A (A represents a pEC50 value≥7.5 (EC50≤32 nM)) | – | – | – | – | – | – | – | – | – |
| Cc1cc(Nc2cc3ncccc3c(N[C@@H]3C[C@H]4CCC[C@@H](C3)N4S(=O)(=O)c3ccccc3)n2)n[nH]1 [Example 9, N^7-(5-methyl-1H-pyrazol-3-yl)-N^5-((1R,3s,5S)-9-(phenylsulfonyl)-9-azabicyclo[3.3.1]nonan-3-yl)-1,6-naphthyridine-5,7-diamine] | – | did not exhibit a statistically significant decrease | – | – | – | – | – | – | < 31.6 | – | – | < 31.6 | 0.1 to 1 | 0.1 to 1 | 0.1 to 1 | – |
| Cc1cc(Nc2cc3nc(CO)ccc3c(N[C@@H]3C[C@H]4CC[C@@H](C3)N4C(=O)OCC(C)C)n2)n[nH]1 [Example 12, Isobutyl(1R,3s,5S)-3-((2-(hydroxymethyl)-7-((5-methyl-1H-pyrazol-3-yl)amino)-1,6-naphthyridin-5-yl)amino)-8-azabicyclo[3.2.1]octane-8-carboxylate] | – | statistically significant decrease | – | – | – | – | – | – | 31.6 to 200 | less than 10% | < 5 | 31.6 to 200 | – | 0.1 to 1 | – | 0.1 to 1 |
| COCCS(=O)(=O)N1[C@@H]2CCC[C@H]1C[C@H](Nc1nc(Nc3cc(C)[nH]n3)cc3ncccc13)C2 [Example 4-19] | A (A represents a pEC50 value≥7.5 (EC50≤32 nM)) | did not exhibit a statistically significant decrease | C (C represents a pKi value between 7 and 9 (Ki between 100 nM and 1 nM)) | – | – | B (B represents a pKi value between 9 and 10 (Ki between 1 nM and 0.1 nM)) | A (A represents a pEC50 value≥7.5 (EC50≤32 nM)) | – | – | – | – | – | – | – | – | – |
| Cc1cc(Nc2cc3ncccc3c(N[C@@H]3C[C@H]4CCC[C@@H](C3)N4C(=O)C(C)(C)CO)n2)n[nH]1 [Example 2-22] | B (B represents a pEC50 value between 6.7 and 7.5 (EC50 between 200 nM and 32 nM)) | did not exhibit a statistically significant decrease | C (C represents a pKi value between 7 and 9 (Ki between 100 nM and 1 nM)) | B (B represents a pKi value between 9 and 10 (Ki between 1 nM and 0.1 nM)) | B (B represents a pKi value between 9 and 10 (Ki between 1 nM and 0.1 nM)) | B (B represents a pKi value between 9 and 10 (Ki between 1 nM and 0.1 nM)) | A (A represents a pEC50 value≥7.5 (EC50≤32 nM)) | – | – | – | – | – | – | – | – | – |
